Source: PMC12457078, “Inhibition of soluble epoxide hydrolase in endotoxin induced pig lung injury” (Frontiers in Pharmacology, 2025)

Assay: pharmacokinetic pilot, continuous infusion in one animal
Format: in vivo
Conditions: pig, whole blood, intravenous, 0.1 mg/kg/h, time 240 minutes (STOP INFUSION), read-out: Conc in blood 950

CCOCCOCCOCCCCCNC(=O)NC12CC3CC(CC(C3)C1)C2 [Compound 950]
concentration at 240 min: 199 ng/mL
